Molecular target: T1, human mGluR5b (Homo sapiens, UniProt P41594)
T1 construct: expressed in transfected cells; host or cells: CHO cells, pSwitch vector (Invitrogen), expression induced with mifepristone
Assay: FLIPR positive modulator assay in CHO cells expressing human mGluR5b
Assay type: cell-based
Details: FLIPR second read after EC20 glutamate, normalised to EC20 (basal) and EC100 (total) glutamate response, read-out: pEC50 in the human mGluR5b positive modulator assay (converted)
Description: CHO cells expressing human mGluR5b (pSwitch vector, Invitrogen) were maintained in DMEM media with 10% Foetal Calf Serum, 0.005% Hygromycin, Proline(10 mg/mL), Zeocin(0.005%). The media was replaced between subculturing days to remove any excess glutamate build up that may cause receptor desensitization. 24 hrs prior to conducting the assay, cells were plated in 384-well black flat clear bottom plates and mGluR5 expression was induced with the addition of 0.01 nM mifepristone. The plates were incubated at 37° C. to give a monolayer with a confluency of 80%.
The tissue culture medium was aspirated using a Tecan power washer. Cells were loaded with 30 μl of Hanks Balanced Salts (HBSS)+[…]+2 μM Fluo-4+250 μM Brilliant Black+0.01% Pluronic acid. The cells were incubated at 37° C. for 2 hours to allow uptake of the dye Fluo-4AM into the cell cytosol, which was converted to Fluo-4 by natural esterases cleaving the AM region preventing the Fluo-4 leaving the cell. […]
A 0.38 M solution of glutamic acid was prepared in water. […] A fluorescent reading was made. […] A second fluorescent read was made. […]
The compound was added ‘on line’ to the cells and a first FLIPR read was made to estimate agonism. The cell plates were then incubated at 37° C. for 5-10 min after which the chosen EC20 Glutamate was added ‘on line’ and a second FLIPR reading made to estimate modulation. […]

T1 sequence (P41594 21-1212): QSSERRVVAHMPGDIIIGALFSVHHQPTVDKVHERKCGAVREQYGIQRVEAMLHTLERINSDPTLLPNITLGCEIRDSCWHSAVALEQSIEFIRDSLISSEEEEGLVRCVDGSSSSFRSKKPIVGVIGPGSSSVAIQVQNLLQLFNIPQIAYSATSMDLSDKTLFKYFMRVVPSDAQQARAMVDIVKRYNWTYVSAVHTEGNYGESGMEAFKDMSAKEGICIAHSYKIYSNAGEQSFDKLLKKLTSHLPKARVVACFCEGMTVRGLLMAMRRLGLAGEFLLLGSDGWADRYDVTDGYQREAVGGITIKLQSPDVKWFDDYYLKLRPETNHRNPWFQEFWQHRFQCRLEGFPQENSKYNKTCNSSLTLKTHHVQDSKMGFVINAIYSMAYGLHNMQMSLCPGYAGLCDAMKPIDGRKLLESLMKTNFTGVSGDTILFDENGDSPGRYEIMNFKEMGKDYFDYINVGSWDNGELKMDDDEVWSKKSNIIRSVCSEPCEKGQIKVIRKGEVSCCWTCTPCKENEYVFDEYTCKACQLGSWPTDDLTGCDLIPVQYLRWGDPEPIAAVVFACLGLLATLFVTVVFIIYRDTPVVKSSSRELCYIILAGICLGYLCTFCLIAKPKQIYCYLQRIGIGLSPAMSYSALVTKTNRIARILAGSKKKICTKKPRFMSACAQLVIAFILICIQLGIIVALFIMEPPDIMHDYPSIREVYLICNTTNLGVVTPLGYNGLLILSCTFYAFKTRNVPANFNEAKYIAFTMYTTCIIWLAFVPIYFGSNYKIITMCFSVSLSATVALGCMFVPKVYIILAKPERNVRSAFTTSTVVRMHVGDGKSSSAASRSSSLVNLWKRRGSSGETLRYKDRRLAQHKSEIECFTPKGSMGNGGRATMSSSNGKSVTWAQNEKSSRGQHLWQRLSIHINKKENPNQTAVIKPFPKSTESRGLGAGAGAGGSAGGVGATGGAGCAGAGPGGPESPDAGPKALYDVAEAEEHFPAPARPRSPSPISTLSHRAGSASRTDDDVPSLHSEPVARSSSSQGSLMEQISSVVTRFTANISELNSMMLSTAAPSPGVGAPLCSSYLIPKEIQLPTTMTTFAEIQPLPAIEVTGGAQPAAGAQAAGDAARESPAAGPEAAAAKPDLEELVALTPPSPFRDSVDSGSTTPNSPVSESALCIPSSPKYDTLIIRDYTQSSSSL

EC50: < 1000 nM
SMILES: N#Cc1cc(F)ccc1N1CCN(C(=O)COCc2ccc(F)cc2)CC1 [5-fluoro-2-[4-({[(4-fluorophenyl)methyl]oxy}acetyl)-1-piperazinyl]benzonitrile]
